We go through ten compounds from patent US11427586B2, “1,2,4-oxadiazole derivatives as liver X receptor agonists” (NOVARTIS AG, priority 2019, dated 2022).

Like-named read-outs stand apart in the source and are kept apart here.

One assay concerns SCD1. In words: Measurement of SCD1 expression in SZ95-SCD1-HiBit cells (HiBiT assay). The class given is cell-based. As to conditions: Homo sapiens; for EC50: read-out: HiBit EC50. The source says:
Measurement of SCD1 Expression in SZ95-SCD1-HiBit Cells
SCD1 expression levels in SZ95 cells were quantitated using the HiBiT system (Promega) in which a small peptide sequence (SmBiT) with a larger protein (LgBiT) reconstitutes luciferase activity and can generate a luminescent signal used for quantitation. SZ95-SCD1-HiBit cells were generated by editing the SCD1 gene of SZ95 cells resulting in the addition of an 8 amino acid linker sequence (gssggssg, SEQ ID NO:1) followed by an 11-amino acid SmBiT sequence (vsgwrlfkkis, SEQ ID NO:2) at the carboxy-terminus of the SCD1 protein. The gRNA targeting sequence used was […] (SEQ ID NO: 3) and the SCD1 insertion oligonucleotide encoding the SmBiT sequence was:
SZ95-SCD1-HiBit cells were seeded in 384-well cell culture white plates at a density of 3000 cells/30 μl. Water was added to edge wells to avoid evaporation. Cells were incubated in a humidified incubator with 5% CO2 at 37° C. overnight. Tested compounds were diluted at a ratio of 1:3 in DMSO using an Agilent BRAVO Automated Liquid Handling Platform and, after further serial dilutions, added to cells at final concentrations starting from 18 μM. 2-(3-(3-((2-chloro-3-(trifluoromethyl)benzyl)(2,2-diphenylethyl)amino)propoxy)phenyl)acetic acid was used as a reference compound in each plate. Cells in the assay plate were incubated in a humidified incubator with 5% CO2 at 37° C. for 48 h.
The assay plates were removed from the incubator and allowed to equilibrate to room temperature. Nano-Glo® HiBiT Detection Reagent (Promega; a mixture of Nano-Glo HiBiT Detection Buffer, Nano-Glo HiBiT Detection Substrate, and LgBiT protein, according to the manufacturer's instructions) was added into assay plates, at a volume equal to cell culture medium in each well. Plates were placed on an orbital shaker at a speed of 300-600 rpm for 10 min at room temperature, and read on an EnVision Plate Reader using luminescence detection with a 1 second read time.
The assay measures the increase in SCD1 protein production in vitro. Amax refers to the percent EC50 of the tested compound compared to a reference compound, 2-(3-(3-((2-chloro-3-(trifluoromethyl)benzyl)(2,2-diphenylethyl)amino)propoxy)phenyl)acetic acid.
Background: With HiBiT, luminescence reflects the tagged protein that the partner subunit can reach.

A further assay relates to SZ95 sebocytes. The assay can be described thus: Sentinel Lipid Assay (SLA), desaturation index in SZ95 sebocytes. Conditions: Homo sapiens, 72 h; for EC50: desaturation index, lowest dose used 4.6 nM, read-out: SLA EC50. The class given is cell-based. The procedure: Sentinel Lipid Assay (SLA)
The sentinel lipid assay was used quantify the change in the global desaturation index in SZ95 sebocytes upon administration of certain LXR agonist compounds provided herein. The assay measures a smaller subset of lipid analytes in meibum (termed “sentinel lipids”) which would model the global changes the population of both saturated and desaturated lipids in the cells. In order to define this smaller subset of lipids, a complete lipid profile was recorded on dose response curves (eight levels from 4 nM to 10 uM) of Compounds 1-72. An elastic net regression model was applied separately to both the saturated and desaturated lipids to determine the minimum combination of coefficients and analytes, which could be used to adequately model the total population of lipids. The elastic net model was able to reduce the behavior of 425 lipids to 11 lipids and the correlation between the desaturation indices observed using the complete set of lipids with from the 11 sentinel lipids was 0.96.
A medium throughput assay was created using this reduced set of sentinel lipids. A single batch is defined as triplicate examples of three unique plates (i.e., a single batch of cells is used to create nine plates for LC-MSMS analysis). Lipids were extracted from the cells using a 1:1 mixture of methylene chloride/methanol containing 10 nM of deuterated standards of triglycerides, which are used as internal standards for quantitating the lipid abundance. The lipids were separated prior to mass spectrometric analysis using a five minute HPLC gradient. The abundance of the sentinel lipids and the internal standards are measured using multiple reaction monitor mode (MRM) on a triple quadrupole mass spectrometer. The data was transformed from total ion current to nmoles/10^6 cells, which are multiplied by the coefficients from the elastic net model to determine the effective desaturated and saturated content, and therein the desaturation index of the dosed cells. In order to compare compounds from multiple batches with one another, the measure raw desaturation index was normalized by dividing it by the desaturation index of the DMSO dosed cells, and all data was assessed as the fraction by which the compound increases the desaturation index above 1.
SZ95 (immortalized human sebaceous gland cells) cells were seeded in Greiner bio-one 96-well polypropylene plates that were pre-treated with 50 μg/mL Human Plasma Fibronectin (Thermo Fisher Scientific) at a density of 10^4 cells/135 μl. Cells were incubated in a humidified incubator with 5% CO2 at 37° C. overnight. Test compounds were diluted at a ratio of 1:3 and added to cells at final concentrations starting from 10 μM. 2-(3-(3-((2-chloro-3-(trifluoromethyl)benzyl)(2,2-diphenylethyl)amino)propoxy)phenyl)acetic acid was used as a positive control reference compound in each plate. Cells in the assay plate were incubated in a humidified incubator with 5% CO2 at 37° C. for 72 h.
Culture medium was removed from the cells and cells in culture plates were washed with ice cold phosphate buffered saline three times. Plates were heat sealed and stored in a −80° C. freezer prior to Sentinel lipid assay. The Amax value refers to the percent EC50 of the tested compound compared to a reference compound, 2-(3-(3-((2-chloro-3-(trifluoromethyl)benzyl)(2,2-diphenylethyl)amino)propoxy)phenyl)acetic acid.

[1] abbreviates: 48 h, normalized Amax based on the reference compound Amax of 100%, read-out: HiBit Normalized Amax.
[2] abbreviates: SZ95-SCD1-HiBit cells, 48 h, SCD1 protein production, luminescence, initial dilution 1:3 in DMSO.
[3] abbreviates: SZ95-SCD1-HiBit cells, 48 h, compared to reference compound, read-out: HiBit Amax.
Setting [4] is: normalized Amax based on the reference compound Amax of 100%, read-out: SLA Normalized Amax.
[5] abbreviates: SZ95 cells, compared to reference compound, read-out: SLA Amax.
The mark [6] stands for this setting: footnote a: initial dilution for the compound 1:100 in assay medium rather than 1:3 in DMSO.

Regarding `O=C(O)CCCCC(=O)N1CCC2(CC1)C(=O)N(Cc1nc(-c3ccc(Oc4ccccc4C(F)(F)F)c(C(F)(F)F)c3)no1)C(=O)N2CCN1CCOCC1` [Compound 69, 6-(1-(2-morpholinoethyl)-2,4-dioxo-3-((3-(3-(trifluoromethyl)-4-(2-(trifluoromethyl)phenoxy)phenyl)-1,2,4-oxadiazol-5-yl)methyl)-1,3,8-triazaspiro[4.5]decan-8-yl)-6-oxohexanoic acid], the results for the Emax in the assay on SCD1 (setting [1]) and with SCD1 (setting [3]) were 76.4% and 72.7%, respectively. In addition, the EC50 in the assay on SCD1 (setting [2]) came to 0.665 nM.

As for `CC(COc1ccc(-c2noc(CN3C(=O)N(CCC4CCOCC4)C4(CCN(C(=O)c5cncnc5)CC4)C3=O)n2)cc1C(F)(F)F)(C(F)(F)F)C(F)(F)F` [Compound 31, 8-(pyrimidine-5-carbonyl)-1-(2-(tetrahydro-2H-pyran-4-yl)ethyl)-3-((3-(4-(3,3,3-trifluoro-2-methyl-2-(trifluoromethyl)propoxy)-3-(trifluoromethyl)phenyl)-1,2,4-oxadiazol-5-yl)methyl)-1,3,8-triazaspiro[4.5]decane-2,4-dione], the Emax is 100% with SZ95 sebocytes (setting [4]), 96.3% in the assay on SZ95 sebocytes (setting [5]), 82.3% with SCD1 (setting [1]) and 78.3% in the assay with SCD1 (setting [3]). Moreover, the EC50 with SZ95 sebocytes (SZ95 cells) was no more than 4.6 nM; in the assay with SCD1 (setting [2]), 0.44 nM.

Consider `O=C(O)Cc1cccc(OCCCN(Cc2cccc(C(F)(F)F)c2Cl)CC(c2ccccc2)c2ccccc2)c1` [Reference Compound, 2-(3-(3-((2-chloro-3-(trifluoromethyl)benzyl)(2,2-diphenylethyl)amino)propoxy)phenyl)acetic acid, reference compound], for which the Emax came to 100% with SZ95 sebocytes (setting [4]), 96% in the assay on SZ95 sebocytes (setting [5]), 100% with SCD1 (setting [1]) and 95.1% in the assay with SCD1 (setting [3]). For the same compound, the 50% effective concentration (EC50) in the assay on SZ95 sebocytes (SZ95 cells) was determined as 87.3 nM; in the assay with SCD1 (setting [2]), 65.4 nM.

Regarding `CC(C)CS(=O)(=O)c1ccccc1Oc1ccc(-c2noc(CN3C(=O)N(CCN4CCOCC4)C4(CCN(CC5CCOCC5)CC4)C3=O)n2)cc1C(F)(F)F` [Compound 26, 3-((3-(4-(2-(isobutylsulfonyl)phenoxy)-3-(trifluoromethyl)phenyl)-1,2,4-oxadiazol-5-yl)methyl)-1-(2-morpholinoethyl)-8-((tetrahydro-2H-pyran-4-yl)methyl)-1,3,8-triazaspiro[4.5]decane-2,4-dione], the Emax came out at 113% with SZ95 sebocytes (setting [4]), 108% with SZ95 sebocytes (setting [5]), 96.3% with SCD1 (setting [1]) and 91.6% in the assay on SCD1 (setting [3]). Moreover, the EC50 is no more than 4.6 nM with SZ95 sebocytes (SZ95 cells) and 0.796 nM with SCD1 (setting [2]).

As for `CC1(C)C(=O)N(Cc2nc(-c3ccc(Oc4ccccc4S(C)(=O)=O)c(C(F)(F)F)c3)no2)C(=O)N1CCN1CCOCC1` [Compound 55, 5,5-dimethyl-3-((3-(4-(2-(methylsulfonyl)phenoxy)-3-(trifluoromethyl)phenyl)-1,2,4-oxadiazol-5-yl)methyl)-1-(2-morpholinoethyl)imidazolidine-2,4-dione], the Emax came out at 161% with SZ95 sebocytes (setting [4]), 154% in the assay with SZ95 sebocytes (setting [5]), 91.6% in the assay with SCD1 (setting [1]) and 87.1% in the assay on SCD1 (setting [3]). Further, the EC50 with SZ95 sebocytes (SZ95 cells) was no more than 4.6 nM; in the assay on SCD1 (setting [2]), 4.43 nM.

In the case of `CC(C)(C)c1ccccc1Oc1ccc(-c2noc(CN3C(=O)N(CCC4CCOCC4)C4(CCN(C5CCC5)CC4)C3=O)n2)cc1C(F)(F)F` [Compound 7, 3-((3-(4-(2-(tert-butyl)phenoxy)-3-(trifluoromethyl)phenyl)-1,2,4-oxadiazol-5-yl)methyl)-8-cyclobutyl-1-(2-(tetrahydro-2H-pyran-4-yl)ethyl)-1,3,8-triazaspiro[4.5]decane-2,4-dione], the Emax stood at 110% with SZ95 sebocytes (setting [4]), 105% in the assay with SZ95 sebocytes (setting [5]), 90% with SCD1 (setting [1]) and 85.6% in the assay with SCD1 (setting [3]). Further, the EC50 with SZ95 sebocytes (SZ95 cells) was no more than 4.6 nM; with SCD1 (setting [2]) it was 0.128 nM.

For `CC(C)CS(=O)(=O)c1ccccc1Oc1ccc(-c2noc(CN3C(=O)N(CCN4CCOCC4)C4(CCN(Cc5cccnn5)CC4)C3=O)n2)cc1C(F)(F)F` [Compound 25, 3-((3-(4-(2-(isobutylsulfonyl)phenoxy)-3-(trifluoromethyl)phenyl)-1,2,4-oxadiazol-5-yl)methyl)-1-(2-morpholinoethyl)-8-(pyridazin-3-ylmethyl)-1,3,8-triazaspiro[4.5]decane-2,4-dione], the Emax with SZ95 sebocytes (setting [4]) was determined as 190%; in the assay with SZ95 sebocytes (setting [5]), 182%; in the assay with SCD1 (setting [1]), 98.2%; in the assay with SCD1 (setting [3]), 93.4%. Also, the results for the 50% effective concentration (EC50) in the assay with SZ95 sebocytes (SZ95 cells) and in the assay with SCD1 (setting [2]) were no more than 4.6 nM and 1.62 nM, respectively.

Regarding `CC(C)CS(=O)(=O)c1ccccc1Oc1ccc(-c2noc(CN3C(=O)N(CCN4CCOCC4)C4(CCN(C(=O)C5CCN(C)CC5)CC4)C3=O)n2)cc1C(F)(F)F` [Compound 33, 3-((3-(4-(2-(isobutylsulfonyl)phenoxy)-3-(trifluoromethyl)phenyl)-1,2,4-oxadiazol-5-yl)methyl)-8-(1-methylpiperidine-4-carbonyl)-1-(2-morpholinoethyl)-1,3,8-triazaspiro[4.5]decane-2,4-dione], the Emax was 121% in the assay on SZ95 sebocytes (setting [4]), 116% in the assay on SZ95 sebocytes (setting [5]), 113% with SCD1 (setting [1]) and 107% in the assay with SCD1 (setting [3]). The EC50 is no more than 4.6 nM with SZ95 sebocytes (SZ95 cells) and 8.53 nM with SCD1 (setting [2]).

As for `CC(C)CS(=O)(=O)c1ccccc1Oc1ccc(-c2noc(CN3C(=O)N(CCN4CCOCC4)C4(CCN(C(=O)CCC(=O)O)CC4)C3=O)n2)cc1C(F)(F)F` [Compound 68, 4-(3-((3-(4-(2-(isobutylsulfonyl)phenoxy)-3-(trifluoromethyl)phenyl)-1,2,4-oxadiazol-5-yl)methyl)-1-(2-morpholinoethyl)-2,4-dioxo-1,3,8-triazaspiro[4.5]decan-8-yl)-4-oxobutanoic acid], the Emax worked out at 84% with SCD1 (setting [1]) and 79.9% in the assay on SCD1 (setting [3]). The EC50 with SCD1 (setting [6]) came to 4.6 nM.

Regarding `CC(C)CS(=O)(=O)c1ccccc1Oc1ccc(-c2noc(CN3C(=O)NC(C)(C)C3=O)n2)cc1C(F)(F)F` [Compound 50a, 3-((3-(4-(2-(isobutylsulfonyl)phenoxy)-3-(trifluoromethyl)phenyl)-1,2,4-oxadiazol-5-yl)methyl)-5,5-dimethylimidazolidine-2,4-dione], the Emax in the assay with SCD1 (setting [1]) was found to be 70.5%; in the assay on SCD1 (setting [3]) it was 67%. In the assay on SCD1 (setting [6]), the EC50 worked out at 255 nM.

A word on the EC50: it is the concentration that produces a half-maximal response.
